Columns and labels:
[1] = target: T1, Human mitochondrial 5'doxyribonucleotidase NT5M (hdNT-2) (Homo sapiens, UniProt Q9NPB1); conditions: Preferred substrate, References: Biochem. 46:13809-13818 (2007), Biochemical Pharmacol. 66: 471-479 (2003); cited from earlier work
[2] = target: Murine cytosolic 5'deoxyribnucleotidase mdNT-1 (Mus musculus, UniProt Q9JM14); conditions: Preferred substrate, References: J. Biol. Chem. 275:5409-5415 (1990), Biochemical Pharmacol. 66: 471-479 (2003); cited from earlier work
[3] = target: Human cytosolic 5'deoxyribonucleotidase hdNT-1 (Homo sapiens, UniProt Q8TCD5); conditions: Preferred substrate, References: J. Biol. Chem. 265:6589-6595 (1990), Biochemical Pharmacol. 66: 471-479 (2003); cited from earlier work
[4] = test system: PBS2 TMP phosphohydrolase (T001), Thymidylate 5'-phosphohydrolase derived from Bacteriophage PBS2, SEQ ID NO: 3; conditions: Preferred substrate, References: Methods Enzymol. 51:285-290 (1978), Also In house data; cited from earlier work
[5] = target: T1, Human mitochondrial 5'doxyribonucleotidase NT5M (hdNT-2); experiment: Preferred substrate (km), Table 4: NT5M (hdNT-2); format: biochemical; conditions: human NT5M compared with T001, according to Table 4

T1 sequence (Q9NPB1 32-228): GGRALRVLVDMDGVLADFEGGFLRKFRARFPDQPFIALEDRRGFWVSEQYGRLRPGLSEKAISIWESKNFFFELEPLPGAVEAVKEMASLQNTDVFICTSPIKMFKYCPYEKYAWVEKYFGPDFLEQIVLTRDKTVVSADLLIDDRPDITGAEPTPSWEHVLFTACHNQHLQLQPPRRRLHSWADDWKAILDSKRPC
Human cytosolic 5'deoxyribonucleotidase hdNT-1, sequence (Q8TCD5 whole entry): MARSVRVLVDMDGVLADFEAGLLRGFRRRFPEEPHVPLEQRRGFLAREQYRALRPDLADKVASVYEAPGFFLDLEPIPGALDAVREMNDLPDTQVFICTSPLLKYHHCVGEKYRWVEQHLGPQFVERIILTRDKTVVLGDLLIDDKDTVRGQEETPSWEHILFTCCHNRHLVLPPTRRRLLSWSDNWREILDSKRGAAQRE
Murine cytosolic 5'deoxyribnucleotidase mdNT-1, sequence (Q9JM14 whole entry): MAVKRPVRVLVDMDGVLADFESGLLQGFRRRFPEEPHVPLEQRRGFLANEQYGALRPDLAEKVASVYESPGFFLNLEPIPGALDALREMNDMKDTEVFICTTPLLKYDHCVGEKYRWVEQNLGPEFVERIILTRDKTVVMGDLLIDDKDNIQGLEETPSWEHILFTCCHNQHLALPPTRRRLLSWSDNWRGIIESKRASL

For `O=c1ccn([C@H]2C[C@H](O)[C@@H](COP(=O)(O)O)O2)c(=O)[nH]1` [dUMP], the Km [1] is given as 160 µM, the Km [2] is given as 0.8 mM and the Km [3] is given as 1.5 mM. For the same compound, the Km [4] was 800 µM.
In the case of `Cc1cn([C@H]2C[C@H](O)[C@@H](COP(=O)(O)O)O2)c(=O)[nH]c1=O` [dTMP, thymidylate], the Km [1] is given as 300 µM, the Km [2] is given as 1.4 mM and the Km [3] is given as 1.5 mM. For the same compound, the “affinity for dTMP, times lower” value [5] was “about 30 times” and the Km [4] was 10 µM.
For `Nc1nc2c(ncn2[C@H]2C[C@H](O)[C@@H](COP(=O)(O)O)O2)c(=O)[nH]1` [dGMP], the Km [1] is listed as 90 µM, the Km [2] is listed as 1.2 mM and the Km [3] is listed as 3.3 mM. For the same compound, the Km [4] was 700 µM.
For `Nc1ncnc2c1ncn2[C@H]1C[C@H](O)[C@@H](COP(=O)(O)O)O1` [dAMP], the Km [2] is given as 1 mM and the Km [3] is given as 3 mM.
